Test results reported in patent US9718859B2, “Glycogen synthase kinase-3 inhibitors” (Ramot at Tel-Aviv University Ltd., priority 2013, dated 2017).
“Also recorded” adds a separate entry of the source. Each block holds one compound with its values, some of them ahead of it. Square brackets hold non-standard residues; d marks the D form. Ends that are not written are not given here. Peptide text beside a SMILES is read from it. * marks the point of attachment. Myristoyl = CCCCCCCCCCCCCC(=O)*; pS = N[C@@H](COP(=O)(O)O)C(=O)O

Experiments:
Aβ loads = assay: Congo red staining of Aβ loads in brain sections of 5XFAD mice; format: in vivo, mouse; conditions: intranasal 60 μg/dose for 120 days, FIG. 8B
Procedure: 5XFAD mice were purchased from Jackson laboratory and maintained at an animal house. The 5XFAD mice were randomly assigned to two groups (6 animals each). Treatment started at the age of 2 months, by administering, intranassally, L807-mts (60 μg) (5 μl solution in each nostril) every other day for 120 days. Saline-perfused brains of the tested mice were rapidly excised and frozen in N2. Brains were divided into the two hemispheres: the left hemisphere was taken for immunohistology and the right hemisphere for immunoblot analysis. Coronal brains sections (14 μm) were cut by cryostat at -20° C. Slices at Bregma -1.58 mm were fixed (using 4% PFA) and stained with Congo red dye (Sigma-Aldrich) or with an antigen-retrieval method with anti-Aβ 6E10 antibody (SIG-39300) and visualized by fluorescence microscopy. Quantification of Aβ depositions was done for the whole hippocampus area in a blinded fashion using Imaging Research software from the NIH in an unbiased stereological approach. Mice were scarified and coronal brain sections were stained with congo red dye and Aβ loads were visualized by fluorescence microscopy.

5XFAD mice = assay: Contextual fear conditioning test in 5XFAD mice; format: in vivo, mouse; conditions: intranasal, 60 μg/dose every other day for 120 days, FIG. 8A
Procedure: 5XFAD mice were purchased from Jackson laboratory and maintained at an animal house. The 5XFAD mice were randomly assigned to two groups (6 animals each). Treatment started at the age of 2 months, by administering, intranassally, L807-mts (60 μg) (5 μl solution in each nostril) every other day for 120 days.
A contextual fear conditioning test (FCT) was thereafter conducted as described in Saura et al. (2005) J. Neurosci. 25(29), 6755-6764. Briefly, mice were subjected to an unconditioned electric stimulus (US footshock; 1 s/1 mA) in a training pre-session. Twenty-four hours later, FCT was measured by scoring freezing behavior (the absence of all but respiratory movement) for 180 seconds using a FreezeFrame automated scoring system (Coulbourn Instruments). All experiments were in compliance with protocols approved by the TAU animal care committee.
Mice (two-month old) were treated intranasally with L807-mts (60 μg/dose) for 120 days. At the end of the experiment mice were subjected to the contextual fear conditioning test (FCT), a behavioral test widely used to evaluate associative learning and memory (see, Saura et al. (2005) supra).

GSK-3 = GSK-3 (Homo sapiens, UniProt P49841); conditions: Licht-Murava et al. 2011; cited from earlier work
GSK-3β (WT) [1] = target: T1, GSK-3β (WT) (Homo sapiens, UniProt P49841); assay: In vitro kinase assay: phosphorylation of the peptide as a substrate by GSK-3β (WT), 32P-γ-ATP; format: biochemical; conditions: WT GSK-3β, FIG. 3 and FIG. 5
T1 construct: made in house
Procedure: (§1) GSK-3β (WT) was incubated with pIRS-1, RREGGMSRPAS(p)VDG (SEQ ID NO:55), as an exemplary substrate, in a reaction mixture (50 mM Tris-HCl, pH 7.3, 10 mM magnesium acetate, and 0.01% β-mercaptoethanol) together with 100 μM 32P[γ-ATP] (0.5 μCi/assay) for 15 minutes. Reactions were stopped by spotting on p81 paper (Whatman), washed with phosphoric acid, and counted for radioactivity as previously described [Ilouz et al. (2006) supra].
(§2) In assays conducted with GSK-3 mutant, the GSK-3β proteins (WT or mutant) were incubated with the indicated substrate in a reaction mixture (50 mM Tris-HCl, pH 7.3, 10 mM magnesium acetate, and 0.01% β-mercaptoethanol) together with 100 μM ^32P[γ-ATP] (0.5 μCi/assay) for 15 minutes. Reactions were stopped by spotting on p81 paper (Whatman) washed with phosphoric acid, and counted for radioactivity as previously described [Ilouz et al. (2006) supra]. In assays from cells overexpressing GSK-3 proteins, GSK-3 proteins were partially purified by DE-52 minicolumn and subjected to in vitro kinase assays as described. The activity of the endogenous GSK-3 that was determined in cells transfected with the pCMV4 vector was subtracted from the activity values obtained for WT and mutants.
Thus, in vitro kinase assays as described hereinabove were performed in the presence of pIRS-1 substrate or L807 and phosphorylation was determined. […]

GSK-3β (WT) [2] = target: T1, GSK-3β (WT); assay: In vitro kinase assay: inhibition of GSK-3β (WT), pIRS-1 as substrate; format: biochemical; conditions: FIG. 4
Procedure: Bacterially expressed Purified GSK-3β Wild-Type (WT) was prepared as previously described (Eldar-Finkelman 1996 PNAS).
as §1
The ability of the novel peptides described in Example 1 to inhibit GSK-3β was determined by in vitro kinase assays as described hereinabove. The results are presented in FIGS. 2A-B. Substrate phosphorylation obtained in reaction with no inhibitor was defined as 100% (Con), and the results presented are means of two independent experiments each performed in duplicate±SEM.

GSK-3β F93A mutant [3] = target: T2, GSK-3β F93A mutant (Homo sapiens, UniProt P49841, F93A); conditions: Licht-Murava et al. 2011; cited from earlier work
T2 construct: made in house, partially purified on a DE-52 minicolumn

GSK-3β F93A mutant [4] = target: T2, GSK-3β F93A mutant; assay: In vitro kinase assay: inhibition of the GSK-3β F93A mutant, pIRS-1 as substrate; format: biochemical; conditions: FIG. 6
Procedure: (§3) GSK-3β F93A mutant (in which Phe93 was replaced by alanine) was prepared as described in WO 2012/101599.
as §2
In vitro kinase assays conducted for evaluating the inhibition activity of L807 and pL807 of the F93A mutant were also conducted, using pIRS-1 as a substrate.

GSK-3β F93A mutant [5] = target: T2, GSK-3β F93A mutant; assay: In vitro kinase assay: phosphorylation of the peptide as a substrate by the GSK-3β F93A mutant; format: biochemical; conditions: FIG. 5
Procedure: as §3, §2
Thus, L807 and the substrate pHSF-1 were both tested in in vitro kinase assays as described hereinabove, for the ability of GSK-3β (WT) and its F93A mutant to phosphorylate these peptides.

T2 sequence (P49841 whole entry F93A): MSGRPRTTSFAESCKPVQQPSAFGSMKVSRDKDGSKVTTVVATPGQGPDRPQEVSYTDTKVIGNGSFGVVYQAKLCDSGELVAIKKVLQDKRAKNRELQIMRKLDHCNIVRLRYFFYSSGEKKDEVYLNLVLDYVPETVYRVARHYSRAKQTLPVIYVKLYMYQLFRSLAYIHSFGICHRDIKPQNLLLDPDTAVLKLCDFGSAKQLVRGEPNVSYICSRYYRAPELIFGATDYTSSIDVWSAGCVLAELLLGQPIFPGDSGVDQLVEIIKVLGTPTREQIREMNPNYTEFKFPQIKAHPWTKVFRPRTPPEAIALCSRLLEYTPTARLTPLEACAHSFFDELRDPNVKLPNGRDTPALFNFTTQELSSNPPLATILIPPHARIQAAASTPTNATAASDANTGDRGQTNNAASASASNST
T1 sequence (P49841 whole entry): as the sequence (P49841 whole entry F93A) above, with A93F counted along it
Chain of GSK-3 (P49841 whole entry): as the sequence (P49841 whole entry F93A) above, with A93F counted along it

Compound: CCCCCCCCCCCCCC(=O)NCC(=O)N[C@@H](CCCCN)C(=O)N[C@@H](CCC(=O)O)C(=O)N[C@@H](C)C(=O)N1CCC[C@H]1C(=O)N1CCC[C@H]1C(=O)N[C@@H](CO)C(=O)N1CCC[C@H]1C(=O)N1CCC[C@H]1C(=O)N[C@@H](CCC(N)=O)C(=O)N[C@@H](COP(=O)(O)O)C(=O)N1CCC[C@H]1C(=O)O [L807-mts, myristic acid-GKEAPPSPPQS(p)P] (Myristoyl-GKEAPPSPPQ[pS]P-OH; C-terminus assumed)
Amount and mean sizes of Aβ loads (Aβ loads): largely reduced | Freezing behavior, performance relative to wild-type (WT) mice (5XFAD mice): up to 81%±14%

Compound: C[C@H](NC(=O)[C@H](CCC(=O)O)NC(=O)[C@@H](N)CCCCN)C(=O)N1CCC[C@H]1C(=O)N1CCC[C@H]1C(=O)N[C@@H](C)C(=O)N1CCC[C@H]1C(=O)N1CCC[C@H]1C(=O)N[C@@H](CCC(N)=O)C(=O)N[C@@H](COP(=O)(O)O)C(=O)N1CCC[C@H]1C(=O)O [L803, KEAPPAPPQS(p)P] (H-KEAPPAPPQ[pS]P-OH; N-terminus and C-terminus assumed)
Interaction with F93 of GSK-3, binding mode as previously reported (GSK-3): contacts GSK-3 residue F93

Peptide phosphorylation by GSK-3β (substrate or not) (GSK-3β (WT) [1]): is not a substrate of GSK-3 | Inhibition of GSK-3 (GSK-3β (WT) [2]): does not inhibit GSK-3
Compound: KEAPPS(p)PPQS(p)P (KEAPP[pS]PPQ[pS]P) [pL807, double phosphorylated L807]

Compound: RREGGMSRPAS(p)VDG (RREGGMSRPA[pS]VDG) [pIRS-1, GSK-3 substrate peptide from the insulin receptor substrate-1]
Peptide phosphorylation by F93A mutant (literature) (GSK-3β F93A mutant [3]): not phosphorylated

Inhibition of the F93A mutant (GSK-3β F93A mutant [4]): no inhibition | Peptide phosphorylation by F93A mutant (GSK-3β F93A mutant [5]): phosphorylated
Compound: C[C@H](NC(=O)[C@H](CCC(=O)O)NC(=O)[C@@H](N)CCCCN)C(=O)N1CCC[C@H]1C(=O)N1CCC[C@H]1C(=O)N[C@@H](CO)C(=O)N1CCC[C@H]1C(=O)N1CCC[C@H]1C(=O)N[C@@H](CCC(N)=O)C(=O)N[C@@H](COP(=O)(O)O)C(=O)N1CCC[C@H]1C(=O)O [L807, KEAPPSPPQS(p)P] (H-KEAPPSPPQ[pS]P-OH; N-terminus and C-terminus assumed)
Peptide phosphorylation by GSK-3β (substrate or not) (GSK-3β (WT) [1]): is a substrate of GSK-3; also recorded: phosphorylated
